Key:
[1] = target: T1, Type-2 angiotensin II receptor (Homo sapiens, UniProt P50052); format: cell-based; conditions: cho-k1; further: in other assays of this panel Not Active means under 50% inhibition at 10 µM
T1 sequence (P50052 whole entry): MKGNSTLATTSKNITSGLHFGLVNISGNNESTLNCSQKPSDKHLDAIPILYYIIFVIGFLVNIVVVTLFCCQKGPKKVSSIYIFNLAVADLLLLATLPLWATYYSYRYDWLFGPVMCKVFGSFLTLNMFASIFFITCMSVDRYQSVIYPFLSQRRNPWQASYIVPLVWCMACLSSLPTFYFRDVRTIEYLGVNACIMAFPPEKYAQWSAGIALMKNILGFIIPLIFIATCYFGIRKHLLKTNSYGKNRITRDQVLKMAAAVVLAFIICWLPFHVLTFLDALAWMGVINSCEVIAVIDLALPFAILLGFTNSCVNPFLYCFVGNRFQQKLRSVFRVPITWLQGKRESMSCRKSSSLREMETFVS

[2] = target: Vascular endothelial growth factor receptor 1 (Homo sapiens, UniProt P17948); format: cell-based; conditions: huvec; further: in other assays of this panel Not Active means under 50% inhibition at 10 µM
Sequence of Vascular endothelial growth factor receptor 1 (P17948 whole entry): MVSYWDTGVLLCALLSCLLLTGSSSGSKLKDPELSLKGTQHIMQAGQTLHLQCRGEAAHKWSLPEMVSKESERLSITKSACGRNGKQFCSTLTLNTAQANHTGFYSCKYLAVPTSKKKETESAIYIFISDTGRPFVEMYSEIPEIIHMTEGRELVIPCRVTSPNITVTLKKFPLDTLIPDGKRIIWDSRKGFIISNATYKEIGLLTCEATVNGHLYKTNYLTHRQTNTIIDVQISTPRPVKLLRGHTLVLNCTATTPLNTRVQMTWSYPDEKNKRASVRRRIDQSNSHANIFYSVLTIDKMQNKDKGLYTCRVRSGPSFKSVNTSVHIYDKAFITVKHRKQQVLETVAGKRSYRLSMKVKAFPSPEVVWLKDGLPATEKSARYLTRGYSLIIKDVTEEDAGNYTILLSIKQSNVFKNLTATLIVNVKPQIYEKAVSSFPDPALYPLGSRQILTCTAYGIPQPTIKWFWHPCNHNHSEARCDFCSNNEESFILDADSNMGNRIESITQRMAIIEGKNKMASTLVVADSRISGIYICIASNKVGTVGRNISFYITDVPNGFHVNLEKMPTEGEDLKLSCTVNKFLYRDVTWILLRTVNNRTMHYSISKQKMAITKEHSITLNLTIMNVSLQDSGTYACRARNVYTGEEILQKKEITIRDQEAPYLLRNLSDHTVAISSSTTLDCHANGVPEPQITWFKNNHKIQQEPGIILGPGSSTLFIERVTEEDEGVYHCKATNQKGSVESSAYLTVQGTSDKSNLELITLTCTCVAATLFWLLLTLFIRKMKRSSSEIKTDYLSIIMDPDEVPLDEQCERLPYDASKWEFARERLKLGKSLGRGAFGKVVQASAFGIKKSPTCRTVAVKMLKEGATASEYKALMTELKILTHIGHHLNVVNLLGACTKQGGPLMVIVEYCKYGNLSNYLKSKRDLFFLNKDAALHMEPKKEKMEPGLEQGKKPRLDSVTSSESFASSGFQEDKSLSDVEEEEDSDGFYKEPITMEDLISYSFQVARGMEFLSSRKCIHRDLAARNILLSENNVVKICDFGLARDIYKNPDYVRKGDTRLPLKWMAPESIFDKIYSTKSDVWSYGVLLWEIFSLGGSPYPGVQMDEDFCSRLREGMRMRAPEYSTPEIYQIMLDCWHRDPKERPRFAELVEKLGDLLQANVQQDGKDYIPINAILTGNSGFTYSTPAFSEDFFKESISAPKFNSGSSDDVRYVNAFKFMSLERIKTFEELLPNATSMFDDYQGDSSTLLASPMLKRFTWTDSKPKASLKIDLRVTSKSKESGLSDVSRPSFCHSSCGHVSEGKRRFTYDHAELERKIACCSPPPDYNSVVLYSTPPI

[3] = target: T2, Calcitonin receptor (Homo sapiens, UniProt P30988); format: cell membranes, Membrane; conditions: t47d; further: in other assays of this panel Not Active means under 50% inhibition at 10 µM
T2 sequence (P30988 whole entry): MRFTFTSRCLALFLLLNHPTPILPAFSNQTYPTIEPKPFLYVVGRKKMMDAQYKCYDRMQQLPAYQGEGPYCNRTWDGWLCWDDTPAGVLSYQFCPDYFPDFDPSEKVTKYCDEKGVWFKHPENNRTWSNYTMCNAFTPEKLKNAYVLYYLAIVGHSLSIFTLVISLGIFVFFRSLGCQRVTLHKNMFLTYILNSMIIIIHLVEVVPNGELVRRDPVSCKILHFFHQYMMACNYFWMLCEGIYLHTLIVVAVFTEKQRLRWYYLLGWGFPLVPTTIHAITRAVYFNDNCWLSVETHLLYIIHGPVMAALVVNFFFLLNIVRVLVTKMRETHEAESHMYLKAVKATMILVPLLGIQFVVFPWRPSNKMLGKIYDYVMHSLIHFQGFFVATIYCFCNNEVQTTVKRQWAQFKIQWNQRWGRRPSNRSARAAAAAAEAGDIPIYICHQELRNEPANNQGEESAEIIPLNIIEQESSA

[4] = target: T3, Muscarinic acetylcholine receptor M5 (Homo sapiens, UniProt P08912); format: cell membranes, CHO-K1, Membrane; conditions: cho-k1; further: in other assays of this panel Not Active means under 50% inhibition at 10 µM
T3 sequence (P08912 whole entry): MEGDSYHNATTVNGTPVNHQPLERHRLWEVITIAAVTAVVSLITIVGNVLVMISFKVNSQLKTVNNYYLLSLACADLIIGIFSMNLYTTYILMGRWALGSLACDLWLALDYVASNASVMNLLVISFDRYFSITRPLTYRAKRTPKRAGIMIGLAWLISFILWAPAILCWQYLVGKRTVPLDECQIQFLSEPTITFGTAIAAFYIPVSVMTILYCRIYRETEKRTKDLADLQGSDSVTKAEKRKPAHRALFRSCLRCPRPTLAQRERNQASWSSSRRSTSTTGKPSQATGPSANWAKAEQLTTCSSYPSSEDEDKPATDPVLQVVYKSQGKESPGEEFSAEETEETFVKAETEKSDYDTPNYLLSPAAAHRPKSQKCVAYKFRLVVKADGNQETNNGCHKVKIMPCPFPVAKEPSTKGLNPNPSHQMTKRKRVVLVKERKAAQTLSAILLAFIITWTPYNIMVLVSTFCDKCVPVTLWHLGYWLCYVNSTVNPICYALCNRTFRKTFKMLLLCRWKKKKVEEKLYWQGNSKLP

[5] = DRUGMATRIX: Nicotinic Acetylcholine radioligand binding (ligand: [125I] Epibatidine); format: cell membranes, Membrane; conditions: imr-32; Not Active = under 50% inhibition at 10 µM
[6] = DRUGMATRIX: ATPase, Na+/K+ enzyme inhibition (substrate: ATP); format: tissue-based, Sus scrofa, Heart; conditions: Not Active = under 50% inhibition at 10 µM
[7] = target: Cytochrome P450 2C9 (Homo sapiens, UniProt P11712); conditions: bti-tn-5b1-4; further: in other assays of this panel Not Active means under 50% inhibition at 10 µM
Sequence of Cytochrome P450 2C9 (P11712 whole entry): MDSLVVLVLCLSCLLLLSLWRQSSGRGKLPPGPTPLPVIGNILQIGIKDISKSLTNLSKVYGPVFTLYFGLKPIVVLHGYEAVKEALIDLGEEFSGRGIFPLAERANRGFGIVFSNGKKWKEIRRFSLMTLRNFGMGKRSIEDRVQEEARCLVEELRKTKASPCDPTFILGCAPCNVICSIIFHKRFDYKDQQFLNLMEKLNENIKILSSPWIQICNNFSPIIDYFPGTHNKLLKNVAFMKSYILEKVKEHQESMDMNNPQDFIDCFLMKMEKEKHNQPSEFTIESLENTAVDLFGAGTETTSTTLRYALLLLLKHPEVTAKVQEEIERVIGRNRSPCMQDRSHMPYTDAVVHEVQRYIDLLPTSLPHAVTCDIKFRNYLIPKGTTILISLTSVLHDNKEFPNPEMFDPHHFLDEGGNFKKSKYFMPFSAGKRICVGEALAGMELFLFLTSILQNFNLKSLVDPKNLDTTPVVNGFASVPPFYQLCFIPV

[8] = target: Kappa-type opioid receptor (Homo sapiens, UniProt P41145); test: DRUGMATRIX: Opiate kappa (OP2, KOP) radioligand binding (ligand: [3H] Diprenorphine); format: cell membranes, HEK293, Membrane; conditions: hek293; Not Active = under 50% inhibition at 10 µM
Sequence of Kappa-type opioid receptor (P41145 whole entry): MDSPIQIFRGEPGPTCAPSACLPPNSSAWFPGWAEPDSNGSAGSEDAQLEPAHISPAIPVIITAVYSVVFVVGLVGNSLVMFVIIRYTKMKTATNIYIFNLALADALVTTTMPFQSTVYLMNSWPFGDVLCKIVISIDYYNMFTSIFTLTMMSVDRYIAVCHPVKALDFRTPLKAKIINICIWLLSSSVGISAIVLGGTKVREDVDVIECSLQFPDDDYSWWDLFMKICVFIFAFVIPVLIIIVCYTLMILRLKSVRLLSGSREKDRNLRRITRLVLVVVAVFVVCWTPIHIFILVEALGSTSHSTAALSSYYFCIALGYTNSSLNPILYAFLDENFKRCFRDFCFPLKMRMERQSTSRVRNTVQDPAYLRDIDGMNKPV

[9] = target: T4, Caspase-1 (Homo sapiens, UniProt P29466); parameters: species or system Escherichia coli
T4 sequence (P29466 whole entry): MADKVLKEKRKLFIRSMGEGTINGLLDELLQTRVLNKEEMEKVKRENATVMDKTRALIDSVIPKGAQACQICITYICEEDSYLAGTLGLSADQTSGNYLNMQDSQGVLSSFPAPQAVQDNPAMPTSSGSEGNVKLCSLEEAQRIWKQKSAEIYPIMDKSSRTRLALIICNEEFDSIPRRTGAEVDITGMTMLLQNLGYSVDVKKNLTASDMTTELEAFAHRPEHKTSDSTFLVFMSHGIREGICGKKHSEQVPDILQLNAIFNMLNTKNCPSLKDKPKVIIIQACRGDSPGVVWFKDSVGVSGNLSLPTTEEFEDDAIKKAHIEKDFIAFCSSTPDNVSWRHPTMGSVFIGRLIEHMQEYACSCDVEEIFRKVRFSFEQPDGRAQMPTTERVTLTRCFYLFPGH

[10] = target: Matrix metalloproteinase-9 (Homo sapiens, UniProt P14780); format: cell-based
Sequence of Matrix metalloproteinase-9 (P14780 whole entry): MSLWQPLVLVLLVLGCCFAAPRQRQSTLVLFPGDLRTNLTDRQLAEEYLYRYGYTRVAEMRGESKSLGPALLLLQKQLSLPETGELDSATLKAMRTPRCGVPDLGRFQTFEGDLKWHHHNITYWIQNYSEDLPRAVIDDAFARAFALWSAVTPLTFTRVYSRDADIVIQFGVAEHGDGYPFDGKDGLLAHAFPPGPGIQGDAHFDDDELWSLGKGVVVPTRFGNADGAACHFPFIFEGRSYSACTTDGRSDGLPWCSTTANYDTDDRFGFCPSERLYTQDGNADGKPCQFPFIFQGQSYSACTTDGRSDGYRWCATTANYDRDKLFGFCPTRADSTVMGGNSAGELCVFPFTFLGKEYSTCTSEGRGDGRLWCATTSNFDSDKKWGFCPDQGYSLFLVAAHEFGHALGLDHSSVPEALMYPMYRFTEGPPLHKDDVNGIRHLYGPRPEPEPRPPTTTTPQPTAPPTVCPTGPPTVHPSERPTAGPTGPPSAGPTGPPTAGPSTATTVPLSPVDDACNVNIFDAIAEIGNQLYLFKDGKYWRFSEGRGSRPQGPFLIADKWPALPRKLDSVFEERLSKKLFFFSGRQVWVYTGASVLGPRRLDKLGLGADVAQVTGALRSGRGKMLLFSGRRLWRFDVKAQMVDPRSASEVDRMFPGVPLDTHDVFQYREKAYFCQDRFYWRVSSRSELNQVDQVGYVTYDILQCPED

[11] = DRUGMATRIX: GABAA, Flunitrazepam, Central radioligand binding (ligand: [3H] Flunitrazepam); format: cell membranes, Rattus norvegicus, Wistar, Brain, Membrane; conditions: Not Active = under 50% inhibition at 10 µM
[12] = DRUGMATRIX: Phorbol Ester radioligand binding (ligand: [3H] PDBu); format: cell membranes, Mus musculus, ICR, Brain, Membrane; conditions: Not Active = under 50% inhibition at 10 µM

O=C1NC(=O)C(c2ccccc2)(c2ccccc2)N1 [PHENYTOIN]
Not Active: IC50 [1] | IC50 [2] | IC50 [3] | IC50 [4] | IC50 [5] | Ki [5] | IC50 [6] | Ki [6] | IC50 [7] | Ki [7] | IC50 [8] | IC50 [9] | IC50 [10] | IC50 [11] | Ki [11] | IC50 [12] | Ki [12]

CC(=O)[C@@]1(O)CC[C@H]2[C@@H]3C[C@H](C)C4=CC(=O)C=C[C@]4(C)[C@@]3(F)[C@@H](O)C[C@@]21C [FLUOROMETHOLONE]
Not Active: IC50 [1] | IC50 [2] | IC50 [3] | IC50 [4] | IC50 [5] | Ki [5] | IC50 [6] | Ki [6] | IC50 [7] | Ki [7] | IC50 [8] | IC50 [9] | IC50 [10] | IC50 [11] | Ki [11] | IC50 [12] | Ki [12]

Nc1nc2c(ncn2COC(CO)CO)c(=O)[nH]1 [GANCICLOVIR]
Not Active: IC50 [1] | IC50 [2] | IC50 [3] | IC50 [4] | IC50 [5] | Ki [5] | IC50 [6] | Ki [6] | IC50 [7] | Ki [7] | IC50 [8] | IC50 [9] | IC50 [10] | IC50 [11] | Ki [11] | IC50 [12] | Ki [12]

COCc1c(C(C)C)nc(C(C)C)c(/C=C/[C@@H](O)C[C@@H](O)CC(=O)O)c1-c1ccc(F)cc1 [CERIVASTATIN]
Not Active: IC50 [1] | IC50 [2] | IC50 [3] | IC50 [4] | IC50 [5] | Ki [5] | IC50 [6] | Ki [6] | IC50 [7] | Ki [7] | IC50 [8] | IC50 [9] | IC50 [10] | IC50 [11] | Ki [11] | IC50 [12] | Ki [12]

CC1(C)S[C@@H]2[C@H](NC(=O)[C@H](N)c3ccc(O)cc3)C(=O)N2[C@H]1C(=O)O [AMOXICILLIN]
Not Active: IC50 [1] | IC50 [2] | IC50 [3] | IC50 [4] | IC50 [5] | Ki [5] | IC50 [6] | Ki [6] | IC50 [7] | Ki [7] | IC50 [8] | IC50 [9] | IC50 [10] | IC50 [11] | Ki [11] | IC50 [12] | Ki [12]

CCOC(=O)OC(C)OC1=C(C(=O)Nc2ccccn2)N(C)S(=O)(=O)c2ccccc21 (stereo not given) [AMPIROXICAM]
Not Active: IC50 [1] | IC50 [2] | IC50 [3] | IC50 [4] | IC50 [5] | Ki [5] | IC50 [6] | Ki [6] | IC50 [7] | Ki [7] | IC50 [8] | IC50 [9] | IC50 [10] | IC50 [11] | Ki [11] | IC50 [12] | Ki [12]

NCC1(CC(=O)O)CCCCC1 [GABAPENTIN]
Not Active: IC50 [1] | IC50 [2] | IC50 [3] | IC50 [4] | IC50 [5] | Ki [5] | IC50 [6] | Ki [6] | IC50 [7] | Ki [7] | IC50 [8] | IC50 [9] | IC50 [10] | IC50 [11] | Ki [11] | IC50 [12] | Ki [12]

CCc1ccc(C(=O)C(C)CN2CCCCC2)cc1 (stereo not given) [EPERISONE]
Not Active: IC50 [1] | IC50 [2] | IC50 [3] | IC50 [4] | IC50 [5] | Ki [5] | IC50 [6] | Ki [6] | IC50 [7] | Ki [7] | IC50 [8] | IC50 [9] | IC50 [10] | IC50 [11] | Ki [11] | IC50 [12] | Ki [12]

CC1(C)S[C@@H]2[C@H](NC(=O)[C@H](NC(=O)N3CCNC3=O)c3ccccc3)C(=O)N2[C@H]1C(=O)O [AZLOCILLIN]
Not Active: IC50 [1] | IC50 [2] | IC50 [3] | IC50 [4] | IC50 [5] | Ki [5] | IC50 [6] | Ki [6] | IC50 [7] | Ki [7] | IC50 [8] | IC50 [9] | IC50 [10] | IC50 [11] | Ki [11] | IC50 [12] | Ki [12]

CN(C)CCCC1(c2ccc(F)cc2)OCc2cc(C#N)ccc21 (stereo not given) [CITALOPRAM]
Not Active: IC50 [1] | IC50 [2] | IC50 [3] | IC50 [4] | IC50 [5] | Ki [5] | IC50 [6] | Ki [6] | IC50 [7] | Ki [7] | IC50 [8] | IC50 [9] | IC50 [10] | IC50 [11] | Ki [11] | IC50 [12] | Ki [12]

From ChEMBL document CHEMBL1909046, “DrugMatrix in vitro pharmacology data”
